Laboratory results from patent US20250074891A1 (Anaxis Pharma Pty Ltd., priority 2021, published 2025).
Like-named read-outs stand apart in the source and are kept apart here.

How the values were obtained:
U937 cells = test: Counter screen: cell viability without TSQ cocktail (off-target effect); design: species or system human
Method: Counter screen: In parallel, all compounds were tested for their ability to affect cell viability. The same U937 cells were treated with compound in DMSO without the TSQ cocktail. This counter screen enabled evaluation of off-target effects. In this case, cell viability was measured by CelltiterGlo.

endogenous MLKL in U937 = endogenous MLKL in U937 (Homo sapiens (Human), UniProt Q8NB16); test: Degradation assay: degradation of endogenous MLKL in human cells (Western blot); conditions: 24 h incubation, read-out: Degradation of endogenous MLKL in U937 (DC50 cell-based assay in μM)
Method: DEGRADATION ASSAY: Screening Compounds Procedure to Evaluate the Activity of Compounds in Degrading Endogenous MLKL in Human Cell
The human monocyte cell line (U937) was seeded on the day of the experiment in a 24-well plate at a cell density of 5*10^5 cells per well in a volume of 0.5 mL per well.
The compound was diluted in DMSO with a starting concentration of 10 mM and titrated stepwise with a dilution of 1:5. 0.5 μL of the compound dilution was added to the appropriate well to achieve a final concentration of 10; 2; 0.4; 0.08 and 0.016 μM. A DMSO only well was included as control.
The cells were incubated for 24 h in the presence of the compound at 37° C. and 10% CO2.
After the 24 h incubation period, the medium was removed and cells washed with 0.5 mL PBS. The cells were then lysed directly in 60 μL of 1×SDS gel loading buffer.
The cell lysate was heat-denatured at […] for 10 min. 10 μL of lysate per well were run on 18-well 4-15% Criterion TGX stain free gels (BIO-RAD). The proteins were then transferred onto nitrocellulose membrane with a wet transfer protocol in the Criterion Blotter (BIO-RAD).
Membranes were blocked with 5% skim milk in TBST. Primary antibody against MLKL (clone 3H1, MABC604 Merck) was used at 1:2000 dilution in TBST with 1% BSA and left shaking over night at 4° C. After washes with TBST, the membranes were incubated with goat anti-rat IgG HRP-conjugated antibody (Southern Biotech) in 1% skim milk TBST at 1:10000 dilution for 1 h at room temperature. After TBST washes the bands were imaged on the ChemiDoc MP Imaging Systm (BIO-RAD) with Immobilion Western Chemiluminescent HRP Substrate Forte (Millipore). The loading control GAPDH was probed for with rabbit anti-GAPDH (CST 14C10) at 1:2000 dilution in 1% BSA TBST over night at 4° C. TBST washes were followed by incubation with goat anti-rabbit IgG HRP-conjugated antibody (Southern Biotech) in 1% skim milk TBST at 1:10000 dilution for 1 h at room temperature followed by TBST washes. The signal was detected as described above.
The band intensity was measured in the ImageLab Software (BIO-RAD) and the MLKL values adjusted for loading with GAPDH. The percentage of degradation was calculated by normalizing the compound treated values to the DMSO only control.

MLKL (full length) = MLKL (full length) (Homo sapiens (Human), UniProt Q8NB16); test: KINOMEscan binding assay, MLKL (full length); conditions: Table 36
Method: Kinase assays. For most assays, kinase-tagged T7 phage strains were grown in parallel in 24-well blocks in an E. coli host derived from the BL21 strain. E. coli were grown to log-phase and infected with T7 phage from a frozen stock (multiplicity of infection=0.4) and incubated with shaking at 32° C. until lysis (90-150 minutes).
The Hill Slope was set to −1.

[1] = test system: U937 human histiocytic leukemia cell line; test: Cellular assay: inhibition of TSQ induced necroptosis (CellTitre-Glo); conditions: U937 cells, TSQ cocktail, 48 hours, Table 38, read-out: Inhibition of TSQ-induced necroptosis (IC50 cell-based assay)
Procedure, shortened: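 U937 cells (20,000/well) pre-dosed with compound (10-point, 1:3 from 36 μM, 0.3% DMSO), then TSQ (hTNF-Fc 100 ng/ml, Smac mimetic 500 nM, Q-VD-OPh 10 μM) for 48 h at 37 °C. Viability by CellTiter-Glo luminescence, normalised to DMSO (100%) and DMSO+TSQ (0%); IC50 from 4-parameter fit.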

[2] = Homo sapiens, U-937, Table 38, read-out: Off-target effect (IC50 cell-based assay)

endogenous MLKL in U937, sequence (Q8NB16 whole entry): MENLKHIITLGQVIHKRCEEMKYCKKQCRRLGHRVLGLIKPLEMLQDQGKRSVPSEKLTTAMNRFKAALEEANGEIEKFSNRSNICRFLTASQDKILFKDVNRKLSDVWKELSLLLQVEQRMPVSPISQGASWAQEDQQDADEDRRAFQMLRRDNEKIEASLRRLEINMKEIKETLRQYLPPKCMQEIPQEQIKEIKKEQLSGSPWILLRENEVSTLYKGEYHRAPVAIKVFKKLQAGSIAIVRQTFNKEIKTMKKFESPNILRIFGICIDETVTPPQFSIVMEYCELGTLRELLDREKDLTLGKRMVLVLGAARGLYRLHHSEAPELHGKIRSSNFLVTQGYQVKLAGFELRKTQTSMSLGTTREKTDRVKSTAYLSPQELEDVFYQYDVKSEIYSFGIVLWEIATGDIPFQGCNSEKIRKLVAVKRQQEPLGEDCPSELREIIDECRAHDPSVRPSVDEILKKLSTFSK
MLKL (full length), sequence (Q8NB16 whole entry): as above

| SMILES | IC50 (U937 cells; [2]) | DC50 (endogenous MLKL in U937) | Kd (MLKL (full length)) | IC50 ([1]; Homo sapiens, U-937) | IC50 (U937 cells; Table 38, read-out: Off-target effect (IC50 cell-based assay)) | IC50 [1] |
| --- | --- | --- | --- | --- | --- | --- |
| CCS(=O)(=O)Nc1ccc(-c2n[nH]c(Nc3ccc(C(=O)NCC(=O)N[C@@H](C(=O)N4C[C@@H](O)C[C@@H]4C(=O)NCc4ccc(-c5scnc5C)cc4)C(C)(C)C)cn3)c2C(N)=O)cc1O[C@H](C)c1ccc(F)cc1 (stereo in doubt) [Compound 1026, 3-{4-ethanesulfonamido-3-[(1R)-1-(4-fluorophenyl)ethoxy]phenyl}-5-({5-[({[(2R)-1-[(2R,4S)-4-hydroxy-2-({[4-(4-methyl-1,3-thiazol-5-yl)phenyl]methyl}carbamoyl)pyrrolidin-1-yl]-3,3-dimethyl-1-oxobutan-2-yl]carbamoyl}methyl)carbamoyl]pyridin-2-yl}amino)-1H-pyrazole-4-carboxamide] | > 10000 nM | 1 to 10 µM | < 10 nM | 1000 to 10000 nM |  |  |
| CCS(=O)(=O)Nc1ccc(-c2n[nH]c(Nc3ccc(C(=O)NCCCCC(=O)N[C@@H](C(=O)N4C[C@@H](O)C[C@@H]4C(=O)NCc4ccc(-c5scnc5C)cc4)C(C)(C)C)cn3)c2C(N)=O)cc1OC(C)c1ccc(F)cc1 (stereo in doubt) [Compound 1029, 3-{4-ethanesulfonamido-3-[(1R)-1-(4-fluorophenyl)ethoxy]phenyl}-5-({5-[(4-{[(2R)-1-[(2R,4S)-4-hydroxy-2-({[4-(4-methyl-1,3-thiazol-5-yl)phenyl]methyl}carbamoyl)pyrrolidin-1-yl]-3,3-dimethyl-1-oxobutan-2-yl]carbamoyl}butyl)carbamoyl]pyridin-2-yl}amino)-1H-pyrazole-4-carboxamide] | > 10000 nM | 1 to 10 µM | < 10 nM | < 1000 nM |  |  |
| CCS(=O)(=O)Nc1ccc(-c2n[nH]c(Nc3ccc(C(=O)OCCCCC(=O)N[C@H](C(=O)N4CC(O)C[C@H]4C(=O)NCc4ccc(-c5scnc5C)cc4)C(C)(C)C)cn3)c2C(N)=O)cc1O[C@@H](C)c1ccc(F)cc1 (stereo in doubt) [Compound 1056, 4-{[(2S)-1-[(2S,4S)-4-hydroxy-2-({[4-(4-methyl-1,3-thiazol-5-yl)phenyl]methyl}carbamoyl)pyrrolidin-1-yl]-3,3-dimethyl-1-oxobutan-2-yl]carbamoyl}butyl 6-[(4-carbamoyl-3-{4-ethanesulfonamido-3-[(1S)-1-(4-fluorophenyl)ethoxy]phenyl}-1H-pyrazol-5-yl)amino]pyridine-3-carboxylate] |  | < 1 µM | 10 to 1000 nM |  | > 10000 nM | < 1000 nM |
| CCS(=O)(=O)Nc1ccc(-c2n[nH]c(Nc3ccnc(OCCOCCOCCOCCOCCNC(=O)COc4cccc5c4C(=O)N(C4CCC(=O)NC4=O)C5=O)c3)c2C(N)=O)cc1 (centres unmarked) [Compound 1001, 5-[(2-{[14-(2-{[2-(2,6-dioxopiperidin-3-yl)-1,3-dioxo-2,3-dihydro-1H-isoindol-4-yl]oxy}acetamido)-3,6,9,12-tetraoxatetradecan-1-yl]oxy}pyridin-4-yl)amino]-3-(4-ethanesulfonamidophenyl)-1H-pyrazole-4-carboxamide] | > 10000 nM | 1 to 10 µM | < 10 nM | > 10000 nM |  |  |
| CCS(=O)(=O)Nc1ccc(-c2n[nH]c(Nc3ccnc(OCCOCCOCCOCCOCCOCCNC(=O)COc4cccc5c4C(=O)N(C4CCC(=O)NC4=O)C5=O)c3)c2C(N)=O)cc1 (centres unmarked) [Compound 1005, 5-[(2-{[17-(2-{[2-(2,6-dioxopiperidin-3-yl)-1,3-dioxo-2,3-dihydro-1H-isoindol-4-yl]oxy}acetamido)-3,6,9,12,15-pentaoxaheptadecan-1-yl]oxy}pyridin-4-yl)amino]-3-(4-ethanes-ulfonamidophenyl)-1H-pyrazole-4-carboxamide] | > 10000 nM | 1 to 10 µM | < 10 nM | > 10000 nM |  |  |
| CCS(=O)(=O)Nc1ccc(-c2n[nH]c(Nc3ccnc(OCCCCC(=O)N[C@H](C(=O)N4C[C@H](O)C[C@H]4C(=O)NCc4ccc(-c5scnc5C)cc4)C(C)(C)C)c3)c2C(N)=O)cc1 [Compound 1013, 3-(4-ethanesulfonamidophenyl)-5-{[2-(4-{[(2S)-1-[(2S,4R)-4-hydroxy-2-({[4-(4-methyl-1,3-thiazol-5-yl)phenyl]methyl}carbamoyl)pyrrolidin-1-yl]-3,3-dimethyl-1-oxobutan-2-yl]carbamoyl}butoxy)pyridin-4-yl]amino}-1H-pyrazole-4-carboxamide] | > 10000 nM | 1 to 10 µM | < 10 nM | 1000 to 10000 nM |  |  |
| Cc1ncsc1-c1ccc(CNC(=O)[C@@H]2C[C@@H](O)CN2C(=O)[C@@H](NC(=O)CCCCOc2cc(Nc3[nH]nc(-c4ccc(NS(=O)(=O)CC(F)(F)F)cc4)c3C(N)=O)ccn2)C(C)(C)C)cc1 [Compound 1016, 5-{[2-(4-{[(2S)-1-[(2S,4R)-4-hydroxy-2-({[4-(4-methyl-1,3-thiazol-5-yl)phenyl]methyl}carbamoyl)pyrrolidin-1-yl]-3,3-dimethyl-1-oxobutan-2-yl]carbamoyl}butoxy)pyridin-4-yl]amino}-3-[4-(2,2,2-trifluoroethanesulfonamido)phenyl]-1H-pyrazole-4-carboxamide] | > 10000 nM | 1 to 10 µM | < 10 nM | 1000 to 10000 nM |  |  |
| CCS(=O)(=O)Nc1ccc(-c2n[nH]c(Nc3ccc(OCCCCC(=O)N[C@H](C(=O)N4C[C@H](O)C[C@H]4C(=O)NCc4ccc(-c5scnc5C)cc4)C(C)(C)C)cn3)c2C(N)=O)cc1 [Compound 1019, 3-(4-ethanesulfonamidophenyl)-5-{[5-(4-{[(2S)-1-[(2S,4R)-4-hydroxy-2-({[4-(4-methyl-1,3-thiazol-5-yl)phenyl]methyl}carbamoyl)pyrrolidin-1-yl]-3,3-dimethyl-1-oxobutan-2-yl]carbamoyl}butoxy)pyridin-2-yl]amino}-1H-pyrazole-4-carboxamide] | > 10000 nM | < 1 µM | < 10 nM | < 1000 nM |  |  |
| Cc1ncsc1-c1ccc(CNC(=O)[C@@H]2C[C@@H](O)CN2C(=O)[C@@H](NC(=O)CCCCOc2ccc(Nc3[nH]nc(-c4ccc(NS(=O)(=O)C(F)F)c(OCc5ccc(F)cc5)c4)c3C(N)=O)nc2)C(C)(C)C)cc1 [Compound 1025, 3-[4-(difluoromethanesulfonamido)-3-[(4-fluorophenyl)methoxy]phenyl]-5-{[5-(4-{[(2S)-1-[(2S,4R)-4-hydroxy-2-({[4-(4-methyl-1,3-thiazol-5-yl)phenyl]methyl}carbamoyl)pyrrolidin-1-yl]-3,3-dimethyl-1-oxobutan-2-yl]carbamoyl}butoxy)pyridin-2-yl]amino}-1H-pyrazole-4-carboxamide] | > 10000 nM | < 1 µM |  | < 1000 nM |  |  |
| Cc1ncsc1-c1ccc(CNC(=O)[C@@H]2C[C@@H](O)CN2C(=O)[C@@H](NC(=O)c2ccc(COc3ccc(Nc4[nH]nc(-c5ccc(NS(=O)(=O)C(F)F)c(O[C@@H](C)c6ccc(F)cc6)c5)c4C(N)=O)nc3)cc2)C(C)(C)C)cc1 [Compound 1030, 3-[4-(difluoromethanesulfonamido)-3-[(1S)-1-(4-fluorophenyl)ethoxy]phenyl]-5-({5-[(4-{[(2S)-1-[(2S,4R)-4-hydroxy-2-({[4-(4-methyl-1,3-thiazol-5-yl)phenyl]methyl}carbamoyl)pyrrolidin-1-yl]-3,3-dimethyl-1-oxobutan-2-yl]carbamoyl}phenyl)methoxy]pyridin-2-yl}amino)-1H-pyrazole-4-carboxamide] | > 10000 nM | < 1 µM |  | < 1000 nM |  |  |
